molecular target: human factor D (Homo sapiens (Human), UniProt P00746); test: biochemical; format: biochemical; details: Factor D inhibition data using Method 1; recombinant human factor D 10 nM, substrate Z-Lys-thiobenzyl, fluorescence; read-out: IC50
Description: Human Complement Factor D Assay: Method 1
Recombinant human factor D (expressed in E. coli and purified using standard methods) at 10 nM concentration is incubated with test compound at various concentrations for 1 hour at room temperature in 0.1 M Hepes buffer, pH 7.5, containing 1 mM MgCl2, 1 M NaCl and 0.05% CHAPS. A synthetic substrate Z-Lys-thiobenzyl and 2,4-dinitrobenzenesulfonyl-fluoresceine are added to final concentrations of 200 μM and 25 μM, respectively. The increase in fluorescence is recorded at excitation of 485 nm and emission at 535 nm in a microplate spectrofluorimeter. IC50 values are calculated from percentage of inhibition of complement factor D-activity as a function of test compound concentration.

human factor D, sequence (P00746 26-253): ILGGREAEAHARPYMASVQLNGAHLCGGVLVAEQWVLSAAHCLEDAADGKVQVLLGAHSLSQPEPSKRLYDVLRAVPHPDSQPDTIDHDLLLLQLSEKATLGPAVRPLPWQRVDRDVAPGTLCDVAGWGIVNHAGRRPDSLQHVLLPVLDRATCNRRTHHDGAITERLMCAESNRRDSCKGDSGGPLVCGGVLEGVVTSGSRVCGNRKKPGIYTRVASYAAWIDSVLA

How did the IC50 turn out when `CC(=O)c1nn(CC(=O)N2[C@@H]3C[C@@H]3C[C@H]2C(=O)N[C@@H](C)C2CCCCC2)c2cnccc12` [Example 5, (1R,3S,5R)-2-[2-(3-Acetyl-pyrazolo[3,4-c]pyridin-1-yl)-acetyl]-2-aza-bicyclo[3.1.0] hexane-3-carboxylic acid ((S)-1-cyclohexyl-ethyl)-amide] was run?
Its IC50 is 5250 nM.

For `CC(=O)c1nn(CC(=O)N2[C@@H]3C[C@@H]3C[C@H]2C(=O)NCC2CCCC(C)C2)c2cnccc12` (single isomer, unassigned; dia 1) [Example 119], which IC50 is on record?
The IC50 was 188 nM.

With `CCC1(CC)CC1CNC(=O)[C@@H]1C[C@H]2C[C@H]2N1C(=O)Cn1nc(C(C)=O)c2cccnc21` (stereo partly drawn) [Example 10, (1R,3S,5R)-2-[2-(3-Acetyl-pyrazolo[3,4-b]pyridin-1-yl)-acetyl]-2-aza-bicyclo[3.1.0] hexane-3-carboxylic acid (2,2-diethyl-cyclopropylmethyl)-amide] as the compound, how does the IC50 read?
The IC50 was 1420 nM.

Which IC50 does the source give for `CO[C@H]1[C@@H](C(=O)NC[C@H]2CC2(Cl)Cl)N(C(=O)Cn2nc(C(N)=O)c3ccc(Cl)cc32)C[C@@H]1F` [Example 41, 6-Chloro-1-(2-{(2S,3S,4S)-2-[((R)-2,2-dichloro-cyclopropylmethyl)-carbamoyl]-4-fluoro-3-methoxy-pyrrolidin-1-yl}-2-oxo-ethyl)-1H-indazole-3-carboxylic acid amide] here?
Its IC50 is 51 nM.

For `CC1CCCC1CNC(=O)[C@@H]1C[C@H]2C[C@H]2N1C(=O)Cn1nc(C(N)=O)c2ccncc21` (single isomer, unassigned; dia 3) [Example 87], which IC50 is on record?
The IC50 was 459 nM.

How did the IC50 turn out when `CC1(C)[C@H](CNC(=O)[C@@H]2C[C@H]3C[C@H]3N2C(=O)Cn2nc(C(N)=O)c3ccncc32)C1(Cl)Cl` [Example 102, 1-(2-{(1R,3S,5R)-3-[((R)-2,2-Dichloro-3,3-dimethyl-cyclopropylmethyl)-carbamoyl]-2-aza-bicyclo[3.1.0]hex-2-yl}-2-oxo-ethyl)-1H-pyrazolo[3,4-c]pyridine-3-carboxylic acid amide] was run?
Its IC50 is 118 nM.

Which IC50 does the source give for `CC1CCCC(CNC(=O)[C@@H]2C[C@H]3C[C@H]3N2C(=O)Cn2nc(C(N)=O)c3ccncc32)C1` (single isomer, unassigned; dia 3) [Example 117] here?
The IC50 was 307 nM.

Which IC50 does the source give for `CC(=O)c1nn(CC(=O)N2[C@@H]3C[C@@H]3C[C@H]2C(=O)N[C@H](C)[C@H]2CC2(Cl)Cl)c2ccccc12` [Example 46, (1R,3S,5R)-2-[2-(3-Acetyl-indazol-1-yl)-acetyl]-2-aza-bicyclo[3.1.0]hexane-3-carboxylic acid [(R)-1-((R)-2,2-dichloro-cyclopropyl)-ethyl]-amide] here?
The IC50 was 12 nM.

`CC(=O)c1nn(CC(=O)N2[C@@H]3C[C@@H]3C[C@H]2C(=O)NC[C@H]2CC2(Cl)Cl)c2ncccc12` [Example 69, (1R,3S,5R)-2-[2-(3-Acetyl-pyrazolo[3,4-b]pyridin-1-yl)-acetyl]-2-aza-bicyclo[3.1.0] hexane-3-carboxylic acid ((R)-2,2-dichloro-cyclopropylmethyl)-amide] was tested. Which IC50 did it give?
The IC50 was 53 nM.

`CC1CCCC1CNC(=O)[C@@H]1C[C@H]2C[C@H]2N1C(=O)Cn1nc(C(N)=O)c2ccncc21` (single isomer, unassigned; dia 4) [Example 88] was tested. Which IC50 did it give?
The IC50 was 781 nM.

How did the IC50 turn out when `Cc1cc2c(C(N)=O)nn(CC(=O)N3[C@@H]4C[C@@H]4C[C@H]3C(=O)N[C@H](C)[C@H]3CC3(Cl)Cl)c2c(C)n1` [Example 45, 1-(2-{(1R,3S,5R)-3-[(R)-1-((R)-2,2-Dichloro-cyclopropyl)-ethylcarbamoyl]-2-aza-bicycio[3.1.0]hex-2-yl}-2-oxo-ethyl)-5,7-dimethyl-1H-pyrazolo[3,4-c]pyridine-3-carboxylic acid amide] was run?
The IC50 was 43 nM.

How did the IC50 turn out when `C[C@@H](NC(=O)[C@@H]1C[C@@]2(CO)C[C@H]2N1C(=O)Cn1nc(C(N)=O)c2ccccc21)[C@H]1CC1(Cl)Cl` [Example 57, 1-(2-{(1R,3S,5S)-3-[(R)-1-((R)-2,2-Dichloro-cyclopropyl)-ethylcarbamoyl]-5-hydroxymethyl-2-aza-bicyclo[3.1.0]hex-2-yl}-2-oxo-ethyl)-1H-indazole-3-carboxylic acid amide] was run?
The IC50 was 17 nM.

Which IC50 does the source give for `C[C@@H](NC(=O)[C@@H]1C[C@H]2C[C@H]2N1C(=O)Cn1nc(C(N)=O)c2ccccc21)C1CCCCC1` [Example 54, 1-{2-[(1R,3S,5R)-3-((R)-1-Cyclohexyl-ethylcarbamoyl)-2-aza-bicyclo[3.1.0]hex-2-yl]-2-oxo-ethyl}-1H-indazole-3-carboxylic acid amide] here?
Its IC50 is 64 nM.

For `CC1CCCC(CNC(=O)[C@@H]2C[C@H]3C[C@H]3N2C(=O)Cn2nc(C(N)=O)c3ccncc32)C1` (single isomer, unassigned; dia 2) [Example 116], which IC50 is on record?
The IC50 was 445 nM.

How did the IC50 turn out when `C[C@@H](NC(=O)[C@@H]1C[C@H]2C[C@H]2N1C(=O)Cn1nc(C(N)=O)c2ccc(Cl)cc21)[C@H]1CC1(Cl)Cl` [Example 49, 6-Chloro-1-(2-{(1R,3S,5R)-3-[(R)-1-((R)-2,2-dichloro-cyclopropyl)-ethylcarbamoyl]-2-aza-bicyclo[3.1.0]hex-2-yl}-2-oxo-ethyl)-1H-indazole-3-carboxylic acid amide] was run?
Its IC50 is 4 nM.

For `CC(=O)c1nn(CC(=O)N2[C@@H]3C[C@@H]3C[C@H]2C(=O)NC[C@H]2C(C)(C)C2(Cl)Cl)c2ccc(OCc3ncccn3)cc12` [Example 104, (1R,3S,5R)-2-{2-[3-Acetyl-5-(pyrimidin-2-ylmethoxy)-indazol-1-yl]-acetyl}-2-aza-bicyclo[3.1.0] hexane-3-carboxylic acid ((R)-2,2-dichloro-3,3-dimethyl-cyclopropylmethyl)-amide], which IC50 is on record?
Its IC50 is 16 nM.

For `CO[C@H]1[C@@H](C(=O)NC[C@H]2CC2(Cl)Cl)N(C(=O)Cn2nc(C(N)=O)c3ccc(C)cc32)C[C@@H]1F` [Example 48, 1-(2-{(2S,3S,4S)-2-[((R)-2,2-Dichloro-cyclopropylmethyl)-carbamoyl]-4-fluoro-3-methoxy-pyrrolidin-1-yl}-2-oxo-ethyl)-6-methyl-1H-indazole-3-carboxylic acid amide], which IC50 is on record?
The IC50 was 27 nM.

Which IC50 does the source give for `CO[C@H]1[C@@H](C(=O)N[C@H](C)[C@H]2CC2(Cl)Cl)N(C(=O)Cn2nc(C(N)=O)c3ccccc32)C[C@@H]1F` [Example 59, 1-(2-{(2S,3S,4S)-2-[(R)-1-((R)-2,2-Dichloro-cyclopropyl)-ethylcarbamoyl]-4-fluoro-3-methoxy-pyrrolidin-1-yl}-2-oxo-ethyl)-1H-indazole-3-carboxylic acid amide] here?
Its IC50 is 14 nM.

For `CC(=O)c1nn(CC(=O)N2[C@@H]3C[C@@H]3C[C@H]2C(=O)NC[C@H]2CC2(Cl)Cl)c2ccc(OCc3nccs3)cc12` [Example 106, (1R,3S,5R)-2-{2-[3-Acetyl-5-(thiazol-2-ylmethoxy)-indazol-1-yl]-acetyl}-2-aza-bicyclo[3.1.0]hexane-3-carboxylic acid ((R)-2,2-dichloro-cyclopropylmethyl)-amide], which IC50 is on record?
Its IC50 is 5 nM.

Which IC50 does the source give for `CC(=O)c1nn(CC(=O)N2[C@@H]3C[C@@H]3C[C@H]2C(=O)NCC2CCC(C)(C)CC2)c2cnccc12` [Example 4, (1R,3S,5R)-2-[2-(3-Acetyl-pyrazolo[3,4-c]pyridin-1-yl)-acetyl]-2-aza-bicyclo[3.1.0] hexane-3-carboxylic acid (4,4-dimethyl-cyclohexylmethyl)-amide] here?
Its IC50 is 955 nM.

With `CC(=O)c1nn(CC(=O)N2[C@@H]3C[C@@H]3C[C@H]2C(=O)N[C@H](C)C2CCCCC2)c2cnccc12` [Example 6, (1R,3S,5R)-2-[2-(3-Acetyl-pyrazolo[3,4-c]pyridin-1-yl)-acetyl]-2-aza-bicyclo[3.1.0] hexane-3-carboxylic acid ((R)-1-cyclohexyl-ethyl)-amide] as the compound, how does the IC50 read?
The IC50 was 71 nM.

How did the IC50 turn out when `NC(=O)n1cc(NC(=O)N2[C@@H]3C[C@@H]3C[C@H]2C(=O)NCC2CC=CCC2)c2ccccc21` (stereo partly drawn) [Example 26, (1R,3S,5R)-2-Aza-bicyclo[3.1.0]hexane-2,3-dicarboxylic acid 2-[(1-carbamoyl-1H-indol-3-yl)-amide] 3-[(cyclohex-3-enylmethyl)-amide]] was run?
Its IC50 is 305 nM.

How did the IC50 turn out when `CC(=O)c1nn(CC(=O)N2[C@@H]3C[C@@H]3C[C@H]2C(=O)NCC2CCCC(C)(C)C2)c2cnccc12` (single isomer, unassigned; dia 1) [Example 17] was run?
Its IC50 is 661 nM.

same assay, conditions: IC50, Factor D inhibition data using Method 1; recombinant human factor D 10 nM, substrate Z-Lys-thiobenzyl, fluorescence

`CC(=O)c1nn(CC(=O)N2[C@@H]3C[C@@H]3C[C@H]2C(=O)N[C@H](C)[C@H]2CC2(Cl)Cl)c2ccc(OCc3ncccn3)cc12` [Example 32, (1R,3S,5R)-2-{2-[3-Acetyl-5-(pyrimidin-2-ylmethoxy)-indazol-1-yl]-acetyl}-2-aza-bicyclo[3.1.0]hexane-3-carboxylic acid [(R)-1-((R)-2,2-dichloro-cyclopropyl)-ethyl]-amide-Dia 1] was tested. Which IC50 did it give?
Its IC50 is 6 nM.

`CC1C(CNC(=O)[C@@H]2C[C@H]3C[C@H]3N2C(=O)Cn2nc(C(N)=O)c3ccccc32)C1(Cl)Cl` (single isomer, unassigned; dia 1) [Example 73, 1-(2-{(1R,3S,5R)-3-[((1R,3R) or (1S,3S)-2,2-Dichloro-3-methyl-cyclopropylmethyl)-carbamoyl]-2-aza-bicyclo[3.1.0]hex-2-yl}-2-oxo-ethyl)-1H-indazole-3-carboxylic acid amide-Dia 1] was tested. Which IC50 did it give?
Its IC50 is 100 nM.

How did the IC50 turn out when `CC1C(CNC(=O)[C@@H]2C[C@H]3C[C@H]3N2C(=O)Cn2nc(C(N)=O)c3ccncc32)C1(Cl)Cl` (single isomer, unassigned; dia 1) [Example 81, 1-(2-{(1R,3S,5R)-3-[((1R,3R) or (1S,3R)-2,2-Dichloro-3-methyl-cyclopropylmethyl)-carbamoyl]-2-aza-bicyclo[3.1.0]hex-2-yI}-2-oxo-ethyl)-1H-pyrazolo[3,4-c]pyridine-3-carboxylic acid amide-Dia 1] was run?
Its IC50 is 21 nM.

From patent publication US9468661B2, “Pyrrolidine derivatives and their use as complement pathway modulators” (priority 2012, dated 2016)
